Data on 1 molecule can be found in patent US11000627B2, “Treatment of implants with phosphonic acid compounds” (Nano Bridging Molecules SA, priority 2016, dated 2021).

A short description of the data set: XPS phosphorus over metal ratio (surface coverage) on Titanium grade 23 dental implants. The note with it: sonicated 65° C. 10 min, Metal = Ti2p + Al2s + V2p. The class given is physicochemical. The procedure: A Titanium grade 23 dental implant (bulk composition atomic concentration Titanium 90%, Aluminum 6%, Vanadium 4%; length 11.0 mm, diameter 3.75 mm) was provided with a roughened surface, produced by sand blasting and acid etching according to industry standards. The dental implant was immersed in 40 ml of a 2% (v/v) aqueous solution of deconex 15 PF-x (which is a phosphate free, potassium hydroxide based standard cleaning agent). The solution was placed in an ultrasonic bath (output frequency 30 kHz) and sonicated at 65° C. for 30 min. The implant was removed from the cleaning agent solution and rinsed with water as follows: 2 times with 40 ml, swirling at room temperature; 4 times with 40 ml, sonicating for 2 min at 65° C.; 1 time with 40 ml, swirling at room temperature. The implant was then placed into 5 ml of a 0.7 mM aqueous solution of 1,1,3,3-propane tetraphosphonic acid. The solution was placed in the ultrasonic bath and sonicated at 65° C. for 10 min. The implant was rinsed with water as follows: 2 times with 10 ml, swirling at room temperature; 1 time with 10 ml, sonicating for 2 min at 65° C.; 1 time with 10 ml, swirling at room temperature. The dental implant was dried in a desiccator over P2O5 and under vacuum (ca 20 mbar) for at least 3 hours.
Ten Titanium grade 23 dental implants (bulk composition atomic concentration Titanium 90%, Aluminum 6%, Vanadium 4%; length 11.0 mm, diameter 3.75 mm) were provided with a roughened surface, produced by sand blasting and acid etching according to industry standards. The dental implants were immersed in 400 ml of a 2% (v/v) aqueous solution of deconex 15 PF-x (which is a phosphate free, potassium hydroxide based standard cleaning agent). The solution was placed in an ultrasonic bath (output frequency 30 kHz) and sonicated at 65° C. for 30 min. The implants were removed from the cleaning agent solution and rinsed with water as follows: 2 times with 400 ml, swirling at room temperature; 4 times with 400 ml, sonicating for 2 min at 65° C.; 1 time with 400 ml, swirling at room temperature. The implants were then placed one after the other into 5 ml of a 0.7 mM aqueous solution of 1,1,3,3-propane tetraphosphonic acid. The solution was placed in the ultrasonic bath and sonicated at 65° C. for 10 min. After the treatment with the phosphonic acid, each implant was rinsed with water as follows: 1 time with 10 ml, swirling at room temperature; 1 time with 10 ml, sonicating for 2 min at 65° C.; 1 time with 10 ml, swirling at room temperature. The dental implants were dried in a desiccator over P2O5 and under vacuum (ca 30 mbar) for at least 3 hours.
A Titanium grade 23 dental implant (bulk composition atomic concentration Titanium 90%, Aluminum 6%, Vanadium 4%; length 13.0 mm, diameter 3.75 mm) was provided with a roughened surface, produced by sand blasting and acid etching according to industry standards. The implant was immersed in 13 ml of a 0.7 mM aqueous solution of 1,1,3,3-propane tetraphosphonic acid. The solution was placed in an ultrasonic bath and sonicated at room temperature for 10 min. The implant was rinsed with water as follows: 1 time with 10 ml, swirling at room temperature; 2 times with 10 ml, sonicating for 1 min at room temperature. The dental implant was dried in a heating oven (ca 70° C.) for at least 1 hour. […]
Following the surface treatment with one phosphonic acid compound as described in Examples 1 to 7 the samples were analyzed by X-ray photoelectron spectroscopy (XPS). […]

As for `O=P(O)(O)C(CC(P(=O)(O)O)P(=O)(O)O)P(=O)(O)O` [1,1,3,3-propane tetraphosphonic acid], the Phosphorus/Metal (0.7 mM) is on record as 0.19; the Phosphorus/Metal (2 mM) was found to be 0.18; the Phosphorus/Metal (3.5 mM) is given as 0.17; the Phosphorus/Metal (5 mM) is 0.18; the Phosphorus/Metal (7 mM) is 0.18.
